# Values of other authors in patent US20240286999A1, “AZABICYCLO[3.1.0]HEXANE COMPOUND” (OTSUKA PHARMACEUTICAL CO., LTD., priority 2021, published 2024).
# Key:
# [1] = tested on: norepinephrine reuptake (NE); conditions: ranking among NE, DA and 5-HT reuptake
# dopamine reuptake (DA) = conditions: relative to NE reuptake
# [2] = tested on: serotonin reuptake (5-HT); conditions: relative to NE reuptake
compound,measurement,setting,value
"c1ccc2cc([C@]34CNC[C@H]3C4)ccc2c1 [(1R,5S)-1-(naphthalen-2-yl)-3-azabicyclo[3.1.0]hexane]",effectiveness against norepinephrine reuptake (NE),[1],most effective
same,effectiveness against dopamine reuptake (DA) relative to norepinephrine reuptake,dopamine reuptake (DA),one-sixth as effective
same,effectiveness against serotonin reuptake (5-HT) relative to norepinephrine reuptake,[2],one-fourteenth as effective
